Source: patent US20080009418A1, “Selective Inhibitors” (Alchemia LTD., priority 2004, published 2008)

Columns and labels:
Human δ-opioid (DOP) = target: T1, Human δ-opioid (DOP) (Homo sapiens, UniProt P41143); assay: Radioligand binding, human δ-opioid (DOP) membranes, FlashPlate, [3H]-Bremazocine; details: compound at 10 μM, [3H]-Bremazocine
T1 construct: purchased Perkin Elmer Biosignal
Method in brief: (§1)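 Cloned human receptor membranes were coated onto FlashPlate wells and incubated with radioligand and compound (added from a 0.5 mM DMSO daughter plate) for 1 hour at room temperature in the dark. Scintillation counting gave percent inhibition, with DMSO defining total and reference ligand defining non-specific binding.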

Human κ-Opioid (KOP) = target: T2, Human κ-Opioid (KOP) (Homo sapiens, UniProt P41145); assay: Radioligand binding, human κ-opioid (KOP) membranes, filtration, [3H]-Diprenorphine; details: compound at 10 μM, [3H]-Diprenorphine
T2 construct: purchased Perkin Elmer Biosignal
T2 sequence (P41145 whole entry): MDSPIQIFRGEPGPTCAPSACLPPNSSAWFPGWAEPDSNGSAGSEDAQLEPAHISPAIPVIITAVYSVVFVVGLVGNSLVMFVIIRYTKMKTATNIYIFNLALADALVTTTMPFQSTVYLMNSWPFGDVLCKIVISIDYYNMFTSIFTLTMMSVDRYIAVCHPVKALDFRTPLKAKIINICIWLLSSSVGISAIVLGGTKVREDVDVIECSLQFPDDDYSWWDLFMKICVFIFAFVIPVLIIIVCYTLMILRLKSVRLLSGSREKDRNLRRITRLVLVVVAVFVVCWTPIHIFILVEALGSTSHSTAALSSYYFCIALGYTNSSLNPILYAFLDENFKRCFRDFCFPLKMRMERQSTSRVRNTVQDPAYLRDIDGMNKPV
Method in brief: (§2)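 Membranes from cloned human receptors were incubated with compound and radioligand for 1 hour at room temperature. Bound ligand was collected on 0.3% PEI-soaked filters, washed with cold 50 mM Tris-HCl pH 7.4, and counted by scintillation. Percent inhibition was computed against DMSO totals and reference-ligand nonspecific wells.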

Human Melanocortin (MC3) = target: T3, Human Melanocortin (MC3) (Homo sapiens, UniProt P41968); assay: Radioligand binding, human melanocortin MC3 membranes, FlashPlate, [125I]-NDP-αMSH; details: compound at 10 μM, [125I]-NDP-αMSH
T3 construct: purchased Perkin Elmer Biosignal
T3 sequence (P41968 whole entry): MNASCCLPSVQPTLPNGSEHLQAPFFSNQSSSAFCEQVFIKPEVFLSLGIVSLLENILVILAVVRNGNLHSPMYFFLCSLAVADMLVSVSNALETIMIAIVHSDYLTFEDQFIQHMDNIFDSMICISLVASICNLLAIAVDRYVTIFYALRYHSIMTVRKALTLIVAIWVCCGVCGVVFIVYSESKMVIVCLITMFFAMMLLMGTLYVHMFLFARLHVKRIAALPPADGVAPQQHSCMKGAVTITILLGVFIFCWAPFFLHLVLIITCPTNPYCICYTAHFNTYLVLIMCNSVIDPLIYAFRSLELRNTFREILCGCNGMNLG
Method in brief: as §1

Human Melanocortin (MC4) = target: T4, Human Melanocortin (MC4) (Homo sapiens, UniProt P32245); assay: Radioligand binding, human melanocortin MC4 membranes, FlashPlate, [125I]-NDP-αMSH; details: compound at 10 μM, [125I]-NDP-αMSH
T4 construct: purchased Perkin Elmer Biosignal
T4 sequence (P32245 whole entry): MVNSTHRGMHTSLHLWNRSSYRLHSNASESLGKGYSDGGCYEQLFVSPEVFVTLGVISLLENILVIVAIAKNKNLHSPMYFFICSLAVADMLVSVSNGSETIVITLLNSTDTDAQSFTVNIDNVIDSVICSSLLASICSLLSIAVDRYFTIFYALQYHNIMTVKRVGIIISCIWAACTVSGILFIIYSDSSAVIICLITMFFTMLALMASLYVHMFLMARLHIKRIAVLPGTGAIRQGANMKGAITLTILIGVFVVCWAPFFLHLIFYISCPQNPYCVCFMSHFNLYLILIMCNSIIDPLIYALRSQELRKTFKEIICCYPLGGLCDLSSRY
Method in brief: as §1

Human melanocortin (MC5) = target: T5, Human melanocortin (MC5) (Homo sapiens, UniProt P33032); assay: Radioligand binding, human melanocortin MC5 membranes, FlashPlate, [125I]-NDP-αMSH; details: compound at 10 μM, [125I]-NDP-αMSH
T5 construct: purchased Perkin Elmer Biosignal
T5 sequence (P33032 whole entry): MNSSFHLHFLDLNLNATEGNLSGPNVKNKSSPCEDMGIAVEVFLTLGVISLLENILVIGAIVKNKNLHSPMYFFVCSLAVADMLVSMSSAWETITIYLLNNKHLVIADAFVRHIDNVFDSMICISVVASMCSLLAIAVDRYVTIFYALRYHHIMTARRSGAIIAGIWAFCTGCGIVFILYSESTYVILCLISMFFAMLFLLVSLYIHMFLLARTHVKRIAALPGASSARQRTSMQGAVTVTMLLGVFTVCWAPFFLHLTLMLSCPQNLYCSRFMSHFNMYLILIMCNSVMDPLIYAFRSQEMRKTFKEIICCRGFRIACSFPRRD
Method in brief: as §1

[1] = target: T6, Human melanin-concentrating hormone (MCH1) (Homo sapiens, UniProt Q99705); assay: Radioligand binding, human melanin-concentrating hormone MCH1 membranes, FlashPlate, [125I]-S36057; details: compound at 10 μM; for A6: inhibition of radioligand binding, human melanin-concentrating hormone (MCH1): [125I]-S36057
T6 construct: purchased Perkin Elmer Biosignal
T6 sequence (Q99705 whole entry): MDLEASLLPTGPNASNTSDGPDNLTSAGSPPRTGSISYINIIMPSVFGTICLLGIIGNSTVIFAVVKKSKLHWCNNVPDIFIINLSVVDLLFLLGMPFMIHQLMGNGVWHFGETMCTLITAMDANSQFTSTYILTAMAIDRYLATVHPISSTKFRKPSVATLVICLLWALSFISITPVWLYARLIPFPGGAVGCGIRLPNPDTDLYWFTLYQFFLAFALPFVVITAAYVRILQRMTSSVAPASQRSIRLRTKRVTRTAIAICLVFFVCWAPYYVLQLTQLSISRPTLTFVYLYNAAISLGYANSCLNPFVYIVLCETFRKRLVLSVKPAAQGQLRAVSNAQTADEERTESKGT
Method in brief: as §1

Human μ-opioid (MOP) = target: T7, Human μ-opioid (MOP) (Homo sapiens, UniProt P35372); assay: Radioligand binding, human μ-opioid (MOP) membranes, FlashPlate, [3H]-Naloxone; details: compound at 10 μM, [3H]-Naloxone
T7 construct: purchased Perkin Elmer Biosignal
T7 sequence (P35372 whole entry): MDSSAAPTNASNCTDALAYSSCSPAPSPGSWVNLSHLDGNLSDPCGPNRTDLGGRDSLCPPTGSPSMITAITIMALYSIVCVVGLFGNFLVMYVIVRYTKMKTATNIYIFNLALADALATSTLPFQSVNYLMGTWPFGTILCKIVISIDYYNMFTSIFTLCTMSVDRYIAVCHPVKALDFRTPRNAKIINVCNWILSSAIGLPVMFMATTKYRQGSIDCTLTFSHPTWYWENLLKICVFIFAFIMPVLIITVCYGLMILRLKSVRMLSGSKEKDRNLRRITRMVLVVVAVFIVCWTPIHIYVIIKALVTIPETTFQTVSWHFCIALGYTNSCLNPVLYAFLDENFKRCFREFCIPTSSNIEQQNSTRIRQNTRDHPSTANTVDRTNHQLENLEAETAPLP
Method in brief: as §1

Human neurokinin (NK1) = target: T8, Human neurokinin (NK1) (Homo sapiens, UniProt P25103); assay: Radioligand binding, human neurokinin NK1 membranes, filtration, [125I]-Substance P; details: compound at 10 μM, [125I]-Substance P
T8 construct: purchased Perkin Elmer Biosignal
T8 sequence (P25103 whole entry): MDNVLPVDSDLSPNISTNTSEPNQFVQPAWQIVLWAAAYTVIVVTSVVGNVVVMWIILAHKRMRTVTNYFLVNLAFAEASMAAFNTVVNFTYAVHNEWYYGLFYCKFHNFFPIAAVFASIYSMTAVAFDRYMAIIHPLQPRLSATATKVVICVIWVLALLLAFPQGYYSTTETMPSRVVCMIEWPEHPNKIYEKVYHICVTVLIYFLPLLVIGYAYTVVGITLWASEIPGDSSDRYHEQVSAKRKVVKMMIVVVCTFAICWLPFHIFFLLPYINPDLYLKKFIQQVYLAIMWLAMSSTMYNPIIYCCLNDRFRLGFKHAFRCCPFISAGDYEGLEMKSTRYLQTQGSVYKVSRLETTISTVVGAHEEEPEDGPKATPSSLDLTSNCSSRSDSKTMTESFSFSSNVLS
Method in brief: as §2

[2] = target: T9, Human neuropeptide Y (NPY-Y1) (Homo sapiens, UniProt P25929); assay: Radioligand binding, human neuropeptide Y NPY-Y1 membranes, FlashPlate, [125I]-PYY; details: compound at 10 μM, [125I]-PYY
T9 construct: purchased Perkin Elmer Biosignal
T9 sequence (P25929 1-384): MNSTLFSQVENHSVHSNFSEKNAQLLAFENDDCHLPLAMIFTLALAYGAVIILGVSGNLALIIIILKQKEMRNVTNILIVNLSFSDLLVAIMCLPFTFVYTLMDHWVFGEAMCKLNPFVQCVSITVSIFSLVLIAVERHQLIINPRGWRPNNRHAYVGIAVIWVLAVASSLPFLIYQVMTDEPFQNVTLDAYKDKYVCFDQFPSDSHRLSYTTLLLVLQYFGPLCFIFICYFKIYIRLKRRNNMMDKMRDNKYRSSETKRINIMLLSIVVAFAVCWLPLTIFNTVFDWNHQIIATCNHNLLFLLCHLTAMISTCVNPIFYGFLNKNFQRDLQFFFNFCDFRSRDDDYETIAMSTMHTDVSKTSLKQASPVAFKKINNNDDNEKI
Method in brief: as §1

Human opioid (ORL1) = target: T10, Human opioid (ORL1) (Homo sapiens, UniProt P41146); assay: Radioligand binding, human opioid ORL1 membranes, FlashPlate, [125I]-Nociceptin; details: compound at 10 μM, [125I]-Nociceptin
T10 construct: purchased Perkin Elmer Biosignal
T10 sequence (P41146 whole entry): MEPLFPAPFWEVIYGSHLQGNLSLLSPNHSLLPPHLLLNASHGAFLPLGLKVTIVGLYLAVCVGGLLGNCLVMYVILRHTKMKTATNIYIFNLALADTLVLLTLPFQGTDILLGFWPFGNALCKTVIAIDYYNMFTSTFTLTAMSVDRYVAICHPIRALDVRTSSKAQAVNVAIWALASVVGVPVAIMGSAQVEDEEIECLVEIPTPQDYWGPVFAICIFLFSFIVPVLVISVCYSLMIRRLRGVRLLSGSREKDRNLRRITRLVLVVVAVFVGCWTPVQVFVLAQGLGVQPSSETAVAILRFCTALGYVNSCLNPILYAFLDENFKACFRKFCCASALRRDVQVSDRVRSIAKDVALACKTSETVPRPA
Method in brief: as §1

Mouse urotensin (mUR2) = target: T11, Mouse urotensin (mUR2) (Mus musculus, UniProt Q8VIH9); assay: Radioligand binding, mouse urotensin mUR2 membranes, FlashPlate, [125I]-Urotensin II; details: compound at 10 μM, [125I]-Urotensin II
T11 construct: purchased Perkin Elmer Biosignal
T11 sequence (Q8VIH9 1-385): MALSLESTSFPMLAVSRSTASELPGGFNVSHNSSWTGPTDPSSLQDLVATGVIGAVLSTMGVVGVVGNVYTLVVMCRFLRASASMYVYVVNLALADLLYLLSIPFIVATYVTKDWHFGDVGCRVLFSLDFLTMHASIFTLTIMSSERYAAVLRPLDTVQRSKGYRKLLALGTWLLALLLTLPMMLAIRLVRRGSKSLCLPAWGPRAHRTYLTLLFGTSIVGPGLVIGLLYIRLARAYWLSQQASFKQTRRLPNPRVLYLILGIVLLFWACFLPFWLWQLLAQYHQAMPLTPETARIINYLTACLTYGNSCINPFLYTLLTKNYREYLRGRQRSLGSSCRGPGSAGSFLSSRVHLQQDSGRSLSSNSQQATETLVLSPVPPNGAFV
Method in brief: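 Cloned mouse urotensin (mUR2) receptor membranes from Perkin Elmer Biosignal were immobilized in FlashPlate microplates using a proprietary coating. Each well got 19.5 μl buffer, then 0.5 μl of DMSO, reference ligand, or compound. Adding 5 μl of [125I]-Urotensin II, diluted to 5× final concentration in binding buffer, started binding. Plates were sealed with TopSeal-A and incubated 1 hour at room temperature in the dark. Wells were counted for 30 seconds each on a TopCount after a 60-second delay, and percentage inhibition was calculated.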

T1 sequence (P41143 whole entry): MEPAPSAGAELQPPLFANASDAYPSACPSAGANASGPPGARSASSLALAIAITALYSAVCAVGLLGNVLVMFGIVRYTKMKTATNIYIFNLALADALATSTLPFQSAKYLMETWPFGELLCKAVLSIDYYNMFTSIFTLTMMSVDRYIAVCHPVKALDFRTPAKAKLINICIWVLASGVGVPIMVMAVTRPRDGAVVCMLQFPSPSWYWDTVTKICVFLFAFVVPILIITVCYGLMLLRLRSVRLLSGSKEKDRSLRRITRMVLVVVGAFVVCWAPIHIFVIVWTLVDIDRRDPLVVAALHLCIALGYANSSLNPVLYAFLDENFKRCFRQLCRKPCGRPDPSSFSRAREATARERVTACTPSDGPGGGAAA

Compound	A1: inhibition of radioligand binding, human δ-opioid (DOP) (Human δ-opioid (DOP))	A2: inhibition of radioligand binding, human κ-opioid (KOP) (Human κ-Opioid (KOP))	A3: inhibition of radioligand binding, human melanocortin (MC3) (Human Melanocortin (MC3))	A4: inhibition of radioligand binding, human melanocortin (MC4) (Human Melanocortin (MC4))	A5: inhibition of radioligand binding, human melanocortin (MC5) (Human melanocortin (MC5))	A6: inhibition of radioligand binding, human melanin-concentrating hormone (MCH1) [1]	A7: inhibition of radioligand binding, human μ-opioid (MOP) (Human μ-opioid (MOP))	A8: inhibition of radioligand binding, human neurokinin (NK1) (Human neurokinin (NK1))	A9: inhibition of radioligand binding, human neuropeptide Y (NPY-Y1) [2]	A10: inhibition of radioligand binding, human opioid (ORL1) (Human opioid (ORL1))	A11: inhibition of radioligand binding, mouse urotensin (mUR2) (Mouse urotensin (mUR2))	also measured
CO[C@H]1[C@H](O)[C@@H](COCc2ccc3ccccc3c2)OC(OCc2ccc(Cl)cc2)[C@@H]1NC(=O)CNC(=N)N (stereo partly drawn) [compound 355]	− (“−” indicates less than 50% inhibition at 10 μM)	− (“−” indicates less than 50% inhibition at 10 μM)	− (“−” indicates less than 50% inhibition at 10 μM)	+ (“+” indicates greater than 50% inhibition at 10 μM)	+ (“+” indicates greater than 50% inhibition at 10 μM)	− (“−” indicates less than 50% inhibition at 10 μM)	− (“−” indicates less than 50% inhibition at 10 μM)	+ (“+” indicates greater than 50% inhibition at 10 μM)	− (“−” indicates less than 50% inhibition at 10 μM)	− (“−” indicates less than 50% inhibition at 10 μM)	− (“−” indicates less than 50% inhibition at 10 μM)	
CSC1O[C@H](COCc2ccc(Cl)cc2)[C@@H](O)[C@@H](OCc2ccc(-c3ccccc3)cc2)[C@H]1NC(=O)CNC(=N)N (stereo partly drawn) [compound 289]	− (“−” indicates less than 50% inhibition at 10 μM)	− (“−” indicates less than 50% inhibition at 10 μM)	− (“−” indicates less than 50% inhibition at 10 μM)	+ (“+” indicates greater than 50% inhibition at 10 μM)	+ (“+” indicates greater than 50% inhibition at 10 μM)	− (“−” indicates less than 50% inhibition at 10 μM)	− (“−” indicates less than 50% inhibition at 10 μM)	+ (“+” indicates greater than 50% inhibition at 10 μM)	− (“−” indicates less than 50% inhibition at 10 μM)	− (“−” indicates less than 50% inhibition at 10 μM)	− (“−” indicates less than 50% inhibition at 10 μM)	
NCCC(=O)NC1C(OCc2ccc(Cl)cc2)OC(COCc2ccc3ccccc3c2)C(O)C1OCc1ccc(Cl)cc1 (single isomer, unassigned) [compound 471]												A1: inhibition of radioligand binding (Human δ-opioid (DOP); human DOP membranes): − (“−” indicates less than 50% inhibition at 10 μM); A2: inhibition of radioligand binding (Human κ-Opioid (KOP); human KOP membranes): − (“−” indicates less than 50% inhibition at 10 μM); A3: inhibition of radioligand binding (Human Melanocortin (MC3); human MC3 membranes): + (“+” indicates greater than 50% inhibition at 10 μM); A4: inhibition of radioligand binding (Human Melanocortin (MC4); human MC4 membranes, 10 µM): − (“−” indicates less than 50% inhibition at 10 μM); A5: inhibition of radioligand binding (Human melanocortin (MC5); human MC5 membranes): + (“+” indicates greater than 50% inhibition at 10 μM); A6: inhibition of radioligand binding ([1]; [125I]-S36057, human MCH1 membranes, 10 µM): − (“−” indicates less than 50% inhibition at 10 μM); A7: inhibition of radioligand binding (Human μ-opioid (MOP); human MOP membranes): − (“−” indicates less than 50% inhibition at 10 μM); A8: inhibition of radioligand binding (Human neurokinin (NK1); human NK1 membranes): + (“+” indicates greater than 50% inhibition at 10 μM); A9: inhibition of radioligand binding ([2]; human NPY-Y1 membranes): − (“−” indicates less than 50% inhibition at 10 μM); A10: inhibition of radioligand binding (Human opioid (ORL1); human ORL1 membranes): − (“−” indicates less than 50% inhibition at 10 μM); A11: inhibition of radioligand binding (Mouse urotensin (mUR2); mouse mUR2 membranes): − (“−” indicates less than 50% inhibition at 10 μM)
